Source: patent US5696108A, “Protein kinase C inhibitors” (Eli Lilly and Company, priority 1996, dated 1997)
Where a name gives a salt, the structure may show the parent alone.

What was measured:
Settings in all cases: Table 1
PKC-α = PKC-α (Homo sapiens, UniProt P17252); assay: PKC Enzyme Assay, alpha isozyme; type: biochemical
Experimental: (§1) PKC enzymes=alpha, beta I, beta II, gamma, delta, epsilon, eta and zeta.
(§2) Assay components in a total volume of 250 μL are as follows:
(§3) For all the enzymes either histone type HL (Worthington) or myelin basic protein is used as substrate. The assay is started by addition of protein kinase C enzyme incubated at 30° C. for 10 minutes and stopped by adding 0.5 mL of cold trichloroacetic acid (Amresco) followed by 100 μL of 1 mg/mL bovine serum albumin (Sigma, St. Louis, Mo.). The precipitate is collected by vacuum filtration on glass fiber filters employing a TOMTEC™ filtration system and quantified by counting in a beta scintillation counter.

PKC-β2 = PKC-β2 (Homo sapiens, UniProt P05771); assay: PKC Enzyme Assay, beta-2 isozyme; type: biochemical
Sequence of PKC-β2 (P05771 1-673 isoform P05771-2): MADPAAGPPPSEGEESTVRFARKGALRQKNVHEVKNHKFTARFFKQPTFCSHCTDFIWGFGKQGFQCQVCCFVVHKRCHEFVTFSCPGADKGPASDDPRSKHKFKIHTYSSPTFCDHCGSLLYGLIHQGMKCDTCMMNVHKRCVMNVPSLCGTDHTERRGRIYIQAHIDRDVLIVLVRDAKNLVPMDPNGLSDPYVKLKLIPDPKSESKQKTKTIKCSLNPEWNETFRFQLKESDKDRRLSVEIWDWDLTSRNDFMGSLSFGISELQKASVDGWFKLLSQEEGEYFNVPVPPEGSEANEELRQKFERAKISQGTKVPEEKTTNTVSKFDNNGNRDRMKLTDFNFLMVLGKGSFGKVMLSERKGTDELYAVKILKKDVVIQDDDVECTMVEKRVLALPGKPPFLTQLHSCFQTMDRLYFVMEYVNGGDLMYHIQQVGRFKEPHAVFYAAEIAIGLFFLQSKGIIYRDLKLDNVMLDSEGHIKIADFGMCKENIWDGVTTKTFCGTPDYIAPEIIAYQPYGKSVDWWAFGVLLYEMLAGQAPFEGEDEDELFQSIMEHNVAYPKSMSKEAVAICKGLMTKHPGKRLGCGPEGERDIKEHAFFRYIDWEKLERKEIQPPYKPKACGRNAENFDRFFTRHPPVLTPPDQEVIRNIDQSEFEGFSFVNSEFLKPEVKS
Experimental: as §1, §2, §3

casein protein kinase II = biological target: T1, casein protein kinase II (Rattus norvegicus, UniProt P19139); assay: Casein Protein Kinase II Assay (CK-II); type: biochemical
T1 construct: isolated from rat brain homogenate; from tissue; host or cells: rat brain homogenate
T1 sequence (P19139 whole entry): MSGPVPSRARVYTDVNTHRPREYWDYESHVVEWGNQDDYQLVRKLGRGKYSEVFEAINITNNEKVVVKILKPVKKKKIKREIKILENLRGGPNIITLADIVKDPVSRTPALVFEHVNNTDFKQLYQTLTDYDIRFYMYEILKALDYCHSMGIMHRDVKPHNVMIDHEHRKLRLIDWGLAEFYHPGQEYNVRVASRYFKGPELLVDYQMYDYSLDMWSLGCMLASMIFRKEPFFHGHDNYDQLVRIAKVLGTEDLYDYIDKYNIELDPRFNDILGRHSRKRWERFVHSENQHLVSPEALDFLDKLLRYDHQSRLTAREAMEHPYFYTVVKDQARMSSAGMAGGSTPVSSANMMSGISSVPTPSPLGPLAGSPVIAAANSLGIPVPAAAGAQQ
T1 sequence (P67874 2-215 partner limits assumed): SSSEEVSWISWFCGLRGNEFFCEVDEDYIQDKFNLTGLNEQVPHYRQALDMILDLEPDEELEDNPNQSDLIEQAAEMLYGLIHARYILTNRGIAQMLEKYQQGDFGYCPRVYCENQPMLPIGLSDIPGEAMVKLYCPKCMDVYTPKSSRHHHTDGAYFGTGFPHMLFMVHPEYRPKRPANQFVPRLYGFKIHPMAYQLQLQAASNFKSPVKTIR
Experimental: Casein Protein Kinase II Assay (CK-II)
The Casein Protein Kinase II Assay is described in Neurochem. […] The assay components are in a total volume of 250 μL: 20 mM Tris-HCl, pH 7.5, 5 mM sodium fluoride, 50 mg/mL Casein (Sigma, St. Louis, Mo.), 10 mM magnesium chloride (Sigma, St. Louis, Mo.), 10 μL DMSO or DMSO/inhibitor and 30 μm (gamma-32P) ATP (DuPont). Initiation of the reaction is performed by addition of casein protein kinase II (isolated from rat brain homogenate), incubated at room temperature for 10 minutes and stopped by the addition of 0.5 mL ice cold Trichloroacetic acid (Amresco) followed by 100 μL of 1 mg/mL bovine serum albumin (Sigma, St. Louis, Mo.). The precipitate is collected by vacuum filtration on glass fiber filters and quantified by counting in a beta scintillation counter.
Assay components in order of addition
10 μL or DMSO or DMSO/inhibitor
25 μL of AT32P in 300 μM magnesium chloride
40 μL of enzyme (undiluted)
Buffer prepared as follows:
(Final volume=3.5 mL: amount of 20 assays)

PKC-β1 = PKC-β1 (Homo sapiens, UniProt P05771); assay: PKC Enzyme Assay, beta-1 isozyme; type: biochemical
Sequence of PKC-β1 (P05771 whole entry): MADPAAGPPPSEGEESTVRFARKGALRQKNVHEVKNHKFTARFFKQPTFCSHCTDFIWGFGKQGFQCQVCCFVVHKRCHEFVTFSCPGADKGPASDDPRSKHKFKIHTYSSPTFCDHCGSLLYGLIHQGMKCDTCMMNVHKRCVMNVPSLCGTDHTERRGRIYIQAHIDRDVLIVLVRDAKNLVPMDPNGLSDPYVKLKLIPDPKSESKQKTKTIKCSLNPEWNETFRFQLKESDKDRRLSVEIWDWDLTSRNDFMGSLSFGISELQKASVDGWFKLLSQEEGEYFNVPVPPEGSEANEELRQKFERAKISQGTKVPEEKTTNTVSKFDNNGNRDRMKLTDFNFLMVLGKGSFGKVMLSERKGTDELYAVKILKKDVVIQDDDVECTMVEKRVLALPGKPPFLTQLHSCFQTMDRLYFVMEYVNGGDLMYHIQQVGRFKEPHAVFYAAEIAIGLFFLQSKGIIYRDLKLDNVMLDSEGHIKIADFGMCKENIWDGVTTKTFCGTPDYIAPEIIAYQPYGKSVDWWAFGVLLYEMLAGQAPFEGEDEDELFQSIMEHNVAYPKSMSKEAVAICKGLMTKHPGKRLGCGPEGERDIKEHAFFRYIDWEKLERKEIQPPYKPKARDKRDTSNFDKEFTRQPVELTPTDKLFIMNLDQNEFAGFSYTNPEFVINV
Experimental: as §1, §2, §3

src = biological target: T2, src (Homo sapiens, UniProt P12931); assay: Protein Tyrosine Kinase Assay (src); type: biochemical
T2 construct: purchased Onogene Science, Inc. PK02 and PK03
T2 sequence (P12931 whole entry, species assumed): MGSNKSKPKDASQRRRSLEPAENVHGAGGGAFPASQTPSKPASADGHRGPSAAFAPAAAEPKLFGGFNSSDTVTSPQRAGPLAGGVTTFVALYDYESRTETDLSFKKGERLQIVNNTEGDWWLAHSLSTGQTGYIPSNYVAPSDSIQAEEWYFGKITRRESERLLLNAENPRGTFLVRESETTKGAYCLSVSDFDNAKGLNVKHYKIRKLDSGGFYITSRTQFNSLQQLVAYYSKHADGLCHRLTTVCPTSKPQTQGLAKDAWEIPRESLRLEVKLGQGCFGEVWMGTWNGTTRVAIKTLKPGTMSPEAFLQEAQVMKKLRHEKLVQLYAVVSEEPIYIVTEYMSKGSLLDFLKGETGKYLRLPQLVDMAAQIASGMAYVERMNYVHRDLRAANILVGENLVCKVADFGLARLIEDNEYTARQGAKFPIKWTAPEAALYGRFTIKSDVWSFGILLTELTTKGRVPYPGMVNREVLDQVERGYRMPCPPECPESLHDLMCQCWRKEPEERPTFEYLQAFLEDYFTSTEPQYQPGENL
Experimental: Protein Tyrosine Kinase Assay (src)
The Assay components are the following:
4 μL DMSO or DMSO/inhibitor

[1] = biological target: T3, cAMP-dependent kinase catalytic subunit (Bos taurus, UniProt P00517); assay: cAMP-Dependent protein Kinase Catalytic Subunit Assay; type: biochemical, bovine
T3 construct: purchased Sigma, St. Louis, Mo; host or cells: bovine heart
Experimental: cAMP-Dependent protein Kinase Catalytic Subunit Assay (PEA) The Assay components are in a total volume of 250 μL: 20 mM HEPES (Sigma, St. Louis, Mo.) buffer pH 7.5, 200 μg/mL histone type HL (Worthington), 10 mM magnesium chloride (Sigma, St. […] The reaction is initiated by addition of bovine heart cAMP-dependent kinase catalytic subunit (Sigma, St. Louis, Mo.), incubated to 30° C. for 10 minutes and stopped by adding 0.5 mL ice cold Trichloroacetic acid (Amresco) followed by 100 μL of 1 mg/mL bovine serum albumin (Sigma). The precipitate is collected by vacuum filtrated on glass fiber filters employing a TOMTEC™ and quantified by counting in a beta scintillation counter. This assay is done identical to the protein kinase C (PKC) enzyme assay except that no phospholipids or diacylglycerol are employed in the assay and the histone substrate is specific for the cAMP-dependent catalytic subunit enzyme.

[2] = biological target: calcium calmodulin dependent protein kinase; assay: Calcium Calmodulin Dependent Protein Kinase Assay (CAM); type: biochemical, rat
Experimental: Calcium Calmodulin Dependent Protein Kinase Assay (CAM)
The reaction is initiated by the addition of calcium calmodulin dependent protein kinase (isolated from rat brain homogenate), incubated at room temperature for 10 minutes and stopped by adding 0.5 mL ice cold trichloroacetic acid (Amresco) followed by 100 μL of 1 mg/mL bovine serum albumin (Sigma, St. Louis, Mo.). The precipitate is collected by vacuum filtration on glass fiber filters and quantified by counting in a beta scintillation counter.
25 μL calmodulin (250 μg/mL)
10 μL DMSO or DMSO/inhibitor

Row | SMILES | IC50 (PKC-α) | IC50 (PKC-β2) | IC50 (casein protein kinase II) | IC50 (PKC-β1) | IC50 (src) | IC50 [1] | IC50 [2]
1 | O=C1NC(=O)C2=C1c1cn(c3ccccc13)CCOCCn1cc2c2ccccc21 [Example 1, 3,4-[(N,N'-1,1'-ethoxyethyl)-bis-(3,3'-indolyl)]-1H-pyrrole-2,5-dione] | 1000 nM | 40 nM | > 100000 nM | 50 nM | – | – | –
2 | O=C1NC(=O)C2=C1c1cn(c3ccccc13)CCOC(CO)CCn1cc2c2ccccc21 (stereo not drawn) [Example 3] | – | – | – | – | > 100000 nM | – | –
3 | CN(C)C[C@H]1CCn2cc(c3ccccc32)C2=C(C(=O)NC2=O)c2cn(c3ccccc23)CCO1 [Example 5r] | – | – | > 100000 nM | – | – | > 100000 nM | 5000 nM
4 | CN(C)C[C@@H]1CCn2cc(c3ccccc32)C2=C(C(=O)NC2=O)c2cn(c3ccccc23)CCO1 [Example 5s] | – | – | > 100000 nM | – | – | > 100000 nM | 8000 nM
5 | O=C1NC(=O)C2=C1c1cn(c3ccccc13)CCOCC(CO)CCn1cc2c2ccccc21 (stereo not drawn) [Example 6] | 4200 nM | 35 nM | – | 43 nM | – | – | –
6 | O=C1NC(=O)C2=C1c1cn(c3ccccc13)CCOCC(CN1CCCC1)CCn1cc2c2ccccc21 (stereo not drawn) [Example 7, 3,4-[(N,N'-1,1'-(2"-ethoxy-(3"'((O)-methylene)-4"'-(N-pyrrolidino)-butane)-bis-(3,3'-indolyl)]-1(H)-pyrrole-2,5-dione hydrochloride salt] | > 5000 nM | 180 nM | – | 150 nM | – | – | –
7 | CN(C)CC1CCn2cc(c3ccccc32)C2=C(C(=O)NC2=O)c2cn(c3ccccc23)CCOC1 (stereo not drawn) [Example 8, 3,4-[(N,N'-1,1'-(2"-ethoxy-(3"'((O)-methylene)-4"'-(N,N-dimethylamino)-butane)-bis-(3,3'-indolyl)]-1(H)-pyrrole-2,5-dione hydrochloride salt] | 2500 nM | 32 nM | – | 37 nM | – | – | –
8 | O=C1NC(=O)C2=C1c1cn(c3ccccc13)CCCOC(CN1CCCC1)CCn1cc2c2ccccc21 (stereo not drawn) [Example 12] | 19000 nM | 500 nM | > 100000 nM | 600 nM | – | > 100000 nM | 93000 nM
9 | O=C1NC(=O)C2=C1c1cn(c3ccccc13)CCCOC(CNCc1ccccc1)CCn1cc2c2ccccc21 (stereo not drawn) [Example 13] | > 5000 nM | 940 nM | – | 1900 nM | – | – | –
10 | O=C1NC(=O)C2=C1c1cn(c3ccccc13)CCCOC(CNS(=O)(=O)c1ccccc1)CCn1cc2c2ccccc21 (stereo not drawn) [Example 15] | > 5000 nM | 830 nM | – | 2900 nM | – | – | –
11 | O=C(NCC1CCn2cc(c3ccccc32)C2=C(C(=O)NC2=O)c2cn(c3ccccc23)CCCO1)OCc1ccccc1 (stereo not drawn) [Example 16] | > 5000 nM | 2300 nM | – | 3200 nM | – | – | –
12 | O=C1NC(=O)C2=C1c1cn(c3ccccc13)CCO[C@@H](CNCc1ccccc1)CCn1cc2c2ccccc21 [Example 18r] | 3400 nM | 87 nM | > 100000 nM | 83 nM | – | > 100000 nM | 8800 nM
13 | O=C1NC(=O)C2=C1c1cn(c3ccccc13)CCO[C@H](CNCc1ccccc1)CCn1cc2c2ccccc21 [Example 18s] | 6400 nM | 300 nM | > 100000 nM | 380 nM | – | > 100000 nM | –
14 | O=C1NC(=O)C2=C1c1cn(c3ccccc13)CCO[C@H](CNS(=O)(=O)c1ccccc1)CCn1cc2c2ccccc21 [Example 21s] | – | 44 nM | – | 170 nM | – | – | –
15 | CN1CCN(C[C@@H]2CCn3cc(c4ccccc43)C3=C(C(=O)NC3=O)c3cn(c4ccccc34)CCO2)CC1 [Example 23s] | 1800 nM | 240 nM | – | 300 nM | – | – | –
16 | O=C1NC(=O)C2=C1c1cn(c3ccccc13)CCO[C@H](CN1CCOCC1)CCn1cc2c2ccccc21 [Example 24s] | 3500 nM | 380 nM | – | 490 nM | – | – | –
17 | O=C(NC[C@H]1CCn2cc(c3ccccc32)C2=C(C(=O)NC2=O)c2cn(c3ccccc23)CCO1)OCc1ccccc1 [Example 25r] | 94000 nM | 120 nM | > 100000 nM | 43 nM | – | > 100000 nM | 22000 nM
18 | O=C1NC(=O)C2=C1c1cn(c3ccccc13)CCOc1ccccc1Cn1cc2c2ccccc21 [Example 27, 3,4-[(N,N'-1,1'-(2"-ethoxy)-benzyl)-bis-(3,3'-indolyl)]-1(H) -pyrrole-2,5-dione hydrochloride] | 2200 nM | 26 nM | – | 49 nM | – | – | –
19 | O=C(OCc1ccccc1)OCC1CCCn2cc(c3ccccc32)C2=C(C(=O)NC2=O)c2cn(c3ccccc23)CC1 (stereo not drawn) [Example 29, 3,4-[(N,N'-1,1'-(3"-(benzylcarbonate)methylene)hexane)-bis-(3,3'-indolyl)]-1H-pyrrole-2,5-dione] | > 100000 nM | 800 nM | – | 700 nM | – | – | –
20 | O=C1NC(=O)C2=C1c1cn(c3ccccc13)CCC[C@@H](CO)CCn1cc2c2ccccc21 [Example 31r] | 240 nM | 8 nM | – | 19 nM | – | – | –
21 | NCC1CCCn2cc(c3ccccc32)C2=C(C(=O)NC2=O)c2cn(c3ccccc23)CC1 (stereo not drawn) [Example 33, 3,4-[(N,N'-1,1'-(3"-aminomethylene)-hexane)-bis-(3,3'-indolyl)]-1H-pyrrole-2,5-dione] | 400 nM | 40 nM | – | 50 nM | 61000 nM | – | 600 nM
22 | CN(C)C[C@H]1CCCn2cc(c3ccccc32)C2=C(C(=O)NC2=O)c2cn(c3ccccc23)CC1 [Example 40s, (S)-3,4-[(N,N'-1,1'-(3"-(N,N-dimethylamine)methylene)-hexane)-bis-(3,3'-indolyl)]-1H-pyrrole-2,5-dione hydrochloride salt] | 400 nM | – | > 100000 nM | – | – | > 100000 nM | 41000 nM
23 | O=C1NC(=O)C2=C1c1cn(c3ccccc13)CCCC(Cn1ccnc1)CCn1cc2c2ccccc21 (stereo not drawn) [Example 41, 3,4-[(N,N'-1,1'-(3"-(N-imidazole)methylene)-hexane)-bis-(3,3'-indolyl)]-1H-pyrrole-2,5-dione] | 300 nM | – | > 100000 nM | – | 91000 nM | – | 3000 nM
24 | O=C1NC(=O)C2=C1c1cn(c3ccccc13)CCCCCCCCn1cc2c2ccccc21 [Example 44] | > 100000 nM | 2000 nM | – | 2000 nM | – | – | –
25 | O=C1NC(=O)C2=C1c1cn(c3ccccc13)CCC(CO)CCn1cc2c2ccccc21 [Example 51, 3,4-[(N,N'-1,1'-(3"-(hydroxy)methylene)pentan)-bis-(3,3'-indolyl)]-1(H)-pyrrole-2,5-dione] | 49000 nM | 500 nM | – | 500 nM | – | – | –
26 | CN(C)CC1CCn2cc(c3ccccc32)C2=C(C(=O)NC2=O)c2cn(c3ccccc23)CC1 [Example 54, 3,4-[(N,N'-1,1'-(3"-(N,N-(dimethylamino)methylene)pentanyl)-bis-(3,3'-indolyl)]-1(H)-pyrrole-2,5-dione hydrochloride] | 160 nM | 4 nM | – | 5 nM | – | – | –
27 | O=C1NC(=O)C2=C1c1cn(c3ccccc13)CCCOC(CNCc1ccccc1)CCn1cc2c2ccccc21 (stereo not drawn) [Example 55] | – | 380 nM | – | 410 nM | – | – | –
